Results reported in patent USRE31463E, “Radiopharmaceutical chelates and method of external imaging” (priority 1980, dated 1983).
Like-named read-outs stand apart in the source and are kept apart here.

Legend:
[1] = mouse, in vivo, iv; for injected dose in the blood: 60 min
[2] = Biodistribution in mice after intravenous injection (organ activities by scintillation counter); settings: i.v., 60 minutes

Substance	injected dose in the intestines ([1]; 30 min) [%]	blood clearance [1]	injected dose in the blood [1]	route of elimination / renal clearance [1]	other results
gallium-67 chelate of 8-hydroxyquinoline [Example 9]	–	–	–	–	injected dose in the blood [2]: 20%; injected dose in the intestines [2]: 13%; injected dose in the liver [2]: 25%
gallium-67 chelate of methyliminodiacetic acid [Example 15]	–	–	–	rapid renal clearance	–
technetium-99m chelate of N-(o-bromobenzyl) iminodiacetic acid [Example 13]	30	rapid blood clearance	less than 5%	–	–
technetium-99m chelate of nitrilotriacetic acid [Example 10]	–	–	–	rapidly clear through the kidneys to urine	injected dose found in the liver and intestines [1]: less than 5%; eliminated in urine ([1]; 1 h): 40%

More lines, main results first:

injected dose in the intestines ([1]; 30 min) [%]	blood clearance [1]	injected dose in the blood [1]	Substance	route of elimination / renal clearance [1]	other results
12	–	–	cobalt-57 chelate of N-[N'-(2,6-dimethylphenyl) carbamoylmethyl] iminodiacetic acid [Example 11]	–	injected dose in the liver ([1]; 30 min): 28%
–	rapid blood clearance	less than 6%	technetium-99m chelate of 10-carboxydecyliminodiacetic acid [Example 12]	eliminated through both kidneys and liver	persistent activity in organs [1]: persistent activity noted in the liver and lungs
